ChEMBL document CHEMBL5625170, “Design, synthesis, and biological evaluation of novel penindolone derivatives as potential inhibitors of hemagglutinin-mediated membrane fusion” (Eur J Med Chem, 2023)

These compounds were tested on Influenza A virus (assay: Anti-viral activity against Influenza A virus amantadine-resistant strain (A/Puerto Rico/8/34) infected in MDCK cells assessed as inhibition of virus cytopathic effect measured after 48 hrs by crystal violet staining based assay). Details: A/Puerto Rico/8/34, MDCK.
Type: functional, organism-based

Row | Compound | IC50
1 | CC(=O)c1cc(C)c(O)c(Cc2[nH]c3ccccc3c2Cc2c(O)c(C)cc(C(C)=O)c2O)c1O | 25.5 µM
2 | CC(=O)c1cc(C)c(O)c(Cc2[nH]c3cc(-c4ccc5cccnc5c4)ccc3c2Cc2c(O)c(C)cc(C(C)=O)c2O)c1O | > 30 µM
3 | CC(=O)c1cc(C)c(O)c(Cc2[nH]c3cc(-c4cccc(F)c4)ccc3c2Cc2c(O)c(C)cc(C(C)=O)c2O)c1O | > 30 µM
4 | CC(=O)c1cc(C)c(O)c(Cc2[nH]c3ccc(-c4c5ccccc5c(-c5ccccc5)c5ccccc45)cc3c2Cc2c(O)c(C)cc(C(C)=O)c2O)c1O | > 30 µM
5 | CC(=O)c1cc(C)c(O)c(Cc2[nH]c3ccc(/C=C/c4ccccc4)cc3c2Cc2c(O)c(C)cc(C(C)=O)c2O)c1O | > 30 µM
6 | COc1ccc(Cn2c(Cc3c(O)c(C)cc(C(C)=O)c3O)c(Cc3c(O)c(C)cc(C(C)=O)c3O)c3ccccc32)cc1 | > 30 µM
7 | CC(=O)c1cc(C)c(O)c(Cc2[nH]c3ccc(-c4ccc5ncccc5c4)cc3c2Cc2c(O)c(C)cc(C(C)=O)c2O)c1O | 18.5 µM
8 | CC(=O)c1cc(C)c(O)c(Cc2[nH]c3cc(-c4cc(C(F)(F)F)cc(C(F)(F)F)c4)ccc3c2Cc2c(O)c(C)cc(C(C)=O)c2O)c1O | > 30 µM
9 | CC(=O)c1cc(C)c(O)c(Cc2[nH]c3ccc(Cl)cc3c2Cc2c(O)c(C)cc(C(C)=O)c2O)c1O | > 30 µM
10 | CC(=O)c1cc(C)c(O)c(Cc2[nH]c3cc(-c4c5ccccc5cc5ccccc45)ccc3c2Cc2c(O)c(C)cc(C(C)=O)c2O)c1O | 8.3 µM
11 | COc1ccc(-c2ccc3c(Cc4c(O)c(C)cc(C(C)=O)c4O)c(Cc4c(O)c(C)cc(C(C)=O)c4O)[nH]c3c2)cc1OC | 19.7 µM
12 | CC(=O)c1cc(C)c(O)c(Cc2c(Cc3c(O)c(C)cc(C(C)=O)c3O)n(Cc3ccc(F)cc3)c3ccccc23)c1O | > 30 µM
13 | CC(=O)c1cc(C)c(O)c(Cc2[nH]c3cc(-c4ccc(C)cc4)ccc3c2Cc2c(O)c(C)cc(C(C)=O)c2O)c1O | 24.1 µM
14 | CC(=O)c1cc(C)c(O)c(Cc2[nH]c3cc(C)ccc3c2Cc2c(O)c(C)cc(C(C)=O)c2O)c1O | 15.1 µM
15 | CC(=O)c1cc(C)c(O)c(Cc2[nH]c3cc(-c4c5ccccc5c(-c5ccccc5)c5ccccc45)ccc3c2Cc2c(O)c(C)cc(C(C)=O)c2O)c1O | > 30 µM
16 | CC(=O)c1cc(C)c(O)c(Cc2[nH]c3cc(-c4ccc5c(c4)CCO5)ccc3c2Cc2c(O)c(C)cc(C(C)=O)c2O)c1O | > 30 µM
17 | CC(=O)c1cc(C)c(O)c(Cc2[nH]c3ccc(-c4ccccc4)cc3c2Cc2c(O)c(C)cc(C(C)=O)c2O)c1O | 26 µM
18 | COc1ccc(-c2ccc3c(Cc4c(O)c(C)cc(C(C)=O)c4O)c(Cc4c(O)c(C)cc(C(C)=O)c4O)[nH]c3c2)cc1 | 8.7 µM
19 | C=CCn1c(Cc2c(O)c(C)cc(C(C)=O)c2O)c(Cc2c(O)c(C)cc(C(C)=O)c2O)c2ccccc21 | > 30 µM
20 | CC(=O)c1cc(C)c(O)c(Cc2[nH]c3cc(-c4cc(C)cc(C)c4)ccc3c2Cc2c(O)c(C)cc(C(C)=O)c2O)c1O | 10.1 µM
21 | COc1ccc2[nH]c(Cc3c(O)c(C)cc(C(C)=O)c3O)c(Cc3c(O)c(C)cc(C(C)=O)c3O)c2c1 | 15.9 µM
22 | CC(=O)c1cc(C)c(O)c(Cc2[nH]c3cc(-c4ccc5c(c4)OCCO5)ccc3c2Cc2c(O)c(C)cc(C(C)=O)c2O)c1O | 9.1 µM
23 | CC(=O)c1cc(C)c(O)c(Cc2[nH]c3ccc(-c4ccc5c(c4)CCO5)cc3c2Cc2c(O)c(C)cc(C(C)=O)c2O)c1O | > 30 µM

Row | Compound | IC50
24 | COc1ccc(-c2ccc3[nH]c(Cc4c(O)c(C)cc(C(C)=O)c4O)c(Cc4c(O)c(C)cc(C(C)=O)c4O)c3c2)cc1 | 16.3 µM
25 | COc1ccc(-c2ccc3[nH]c(Cc4c(O)c(C)cc(C(C)=O)c4O)c(Cc4c(O)c(C)cc(C(C)=O)c4O)c3c2)cc1OC | 18.1 µM
26 | CC(=O)c1cc(C)c(O)c(Cc2[nH]c3cc(/C=C/c4ccccc4)ccc3c2Cc2c(O)c(C)cc(C(C)=O)c2O)c1O | > 30 µM
27 | CC(=O)c1cc(C)c(O)c(Cc2[nH]c3ccc(Br)cc3c2Cc2c(O)c(C)cc(C(C)=O)c2O)c1O | 25.2 µM
28 | CC(=O)c1cc(C)c(O)c(Cc2[nH]c3ccc(-c4cc(C)cc(C)c4)cc3c2Cc2c(O)c(C)cc(C(C)=O)c2O)c1O | 13.5 µM
29 | CC(=O)c1cc(C)c(O)c(Cc2[nH]c3cc(-c4ccc(C(F)(F)F)cc4)ccc3c2Cc2c(O)c(C)cc(C(C)=O)c2O)c1O | 25 µM
30 | CC(=O)c1cc(C)c(O)c(Cc2[nH]c3ccc(C)cc3c2Cc2c(O)c(C)cc(C(C)=O)c2O)c1O | 20.6 µM
31 | CC(=O)c1cc(C)c(O)c(Cc2c(Cc3c(O)c(C)cc(C(C)=O)c3O)n(Cc3ccc(Cl)cc3)c3ccccc23)c1O | > 30 µM
32 | CC(=O)c1cc(C)c(O)c(Cc2[nH]c3cc(-c4cc(C(C)(C)C)cc(C(C)(C)C)c4)ccc3c2Cc2c(O)c(C)cc(C(C)=O)c2O)c1O | 26.8 µM
33 | COc1cc(-c2ccc3c(Cc4c(O)c(C)cc(C(C)=O)c4O)c(Cc4c(O)c(C)cc(C(C)=O)c4O)[nH]c3c2)cc(OC)c1OC | 20.1 µM
34 | CC(=O)c1cc(C)c(O)c(Cc2[nH]c3ccc(-c4cccc(O)c4)cc3c2Cc2c(O)c(C)cc(C(C)=O)c2O)c1O | > 30 µM
35 | COc1cccc(OC)c1-c1ccc2[nH]c(Cc3c(O)c(C)cc(C(C)=O)c3O)c(Cc3c(O)c(C)cc(C(C)=O)c3O)c2c1 | 21 µM
36 | CC(=O)c1cc(C)c(O)c(Cc2[nH]c3ccc(F)cc3c2Cc2c(O)c(C)cc(C(C)=O)c2O)c1O | > 30 µM
37 | CC(=O)c1cc(C)c(O)c(Cc2[nH]c3ccc(-c4ccc(F)cc4)cc3c2Cc2c(O)c(C)cc(C(C)=O)c2O)c1O | > 30 µM
38 | CC(=O)c1cc(C)c(O)c(Cc2[nH]c3cc(-c4cccc(O)c4)ccc3c2Cc2c(O)c(C)cc(C(C)=O)c2O)c1O | > 30 µM
39 | CC(=O)c1cc(C)c(O)c(Cc2[nH]c3ccc(-c4ccc(Cl)cc4)cc3c2Cc2c(O)c(C)cc(C(C)=O)c2O)c1O | 27 µM
40 | CC(=O)c1cc(C)c(O)c(Cc2[nH]c3ccc(-c4ccsc4)cc3c2Cc2c(O)c(C)cc(C(C)=O)c2O)c1O | > 30 µM
41 | CCOC(=O)C1=C[C@@H](OC(CC)CC)[C@H](NC(C)=O)[C@@H](N)C1 [OSELTAMIVIR] | 11.4 µM
42 | CC(=O)c1cc(C)c(O)c(Cc2[nH]c3cc(-c4ccc(Cl)cc4)ccc3c2Cc2c(O)c(C)cc(C(C)=O)c2O)c1O | > 30 µM
43 | COc1ccc2cc(-c3ccc4[nH]c(Cc5c(O)c(C)cc(C(C)=O)c5O)c(Cc5c(O)c(C)cc(C(C)=O)c5O)c4c3)ccc2c1 | 21.2 µM
44 | CC(=O)c1cc(C)c(O)c(Cc2[nH]c3cc(-c4ccccc4)ccc3c2Cc2c(O)c(C)cc(C(C)=O)c2O)c1O | 23.4 µM
45 | CC(=O)c1cc(C)c(O)c(Cc2[nH]c3cc(-c4ccsc4)ccc3c2Cc2c(O)c(C)cc(C(C)=O)c2O)c1O | > 30 µM
46 | COc1ccc2cc(-c3ccc4c(Cc5c(O)c(C)cc(C(C)=O)c5O)c(Cc5c(O)c(C)cc(C(C)=O)c5O)[nH]c4c3)ccc2c1 | 23.3 µM

Row | Compound | IC50
47 | CSc1ccc(-c2ccc3c(Cc4c(O)c(C)cc(C(C)=O)c4O)c(Cc4c(O)c(C)cc(C(C)=O)c4O)[nH]c3c2)cc1 | 9.1 µM
48 | CC(=O)c1cc(C)c(O)c(Cc2[nH]c3ccc(-c4cccc(F)c4)cc3c2Cc2c(O)c(C)cc(C(C)=O)c2O)c1O | > 30 µM
49 | COc1cc(-c2ccc3[nH]c(Cc4c(O)c(C)cc(C(C)=O)c4O)c(Cc4c(O)c(C)cc(C(C)=O)c4O)c3c2)cc(OC)c1OC | 8 µM
50 | CC(=O)c1cc(C)c(O)c(Cc2c(Cc3c(O)c(C)cc(C(C)=O)c3O)n(Cc3ccccc3)c3ccccc23)c1O | > 30 µM
51 | CC(=O)c1cc(C)c(O)c(Cc2c(Cc3c(O)c(C)cc(C(C)=O)c3O)n(N)c3ccccc23)c1O | > 30 µM
52 | COc1cccc(OC)c1-c1ccc2c(Cc3c(O)c(C)cc(C(C)=O)c3O)c(Cc3c(O)c(C)cc(C(C)=O)c3O)[nH]c2c1 | 19.5 µM
53 | CC(=O)c1cc(C)c(O)c(Cc2[nH]c3cc(-c4ccc5ccccc5c4)ccc3c2Cc2c(O)c(C)cc(C(C)=O)c2O)c1O | 26 µM
54 | CC(=O)c1cc(C)c(O)c(Cc2[nH]c3cc(-c4ccc(F)cc4)ccc3c2Cc2c(O)c(C)cc(C(C)=O)c2O)c1O | 20.6 µM
55 | CC(=O)c1cc(C)c(O)c(Cc2[nH]c3ccc(-c4ccc(C)cc4)cc3c2Cc2c(O)c(C)cc(C(C)=O)c2O)c1O | 15.5 µM
56 | COc1ccc2c(Cc3c(O)c(C)cc(C(C)=O)c3O)c(Cc3c(O)c(C)cc(C(C)=O)c3O)[nH]c2c1 | 12.6 µM
57 | CC(=O)c1cc(C)c(O)c(Cc2[nH]c3ccc(-c4cc(C(F)(F)F)cc(C(F)(F)F)c4)cc3c2Cc2c(O)c(C)cc(C(C)=O)c2O)c1O | > 30 µM
58 | CC(=O)c1cc(C)c(O)c(Cc2[nH]c3ccc(-c4ccc(C(F)(F)F)cc4)cc3c2Cc2c(O)c(C)cc(C(C)=O)c2O)c1O | 21.9 µM
59 | CC(=O)c1cc(C)c(O)c(Cc2[nH]c3ccc(-c4cc(C(C)(C)C)cc(C(C)(C)C)c4)cc3c2Cc2c(O)c(C)cc(C(C)=O)c2O)c1O | > 30 µM
60 | CC(=O)c1cc(C)c(O)c(Cc2[nH]c3cc(-c4ccccc4F)ccc3c2Cc2c(O)c(C)cc(C(C)=O)c2O)c1O | > 30 µM
61 | CC(=O)c1cc(C)c(O)c(Cc2[nH]c3ccc(-c4ccccc4F)cc3c2Cc2c(O)c(C)cc(C(C)=O)c2O)c1O | > 30 µM
62 | CSc1ccc(-c2ccc3[nH]c(Cc4c(O)c(C)cc(C(C)=O)c4O)c(Cc4c(O)c(C)cc(C(C)=O)c4O)c3c2)cc1 | 17.5 µM
63 | CC(=O)c1cc(C)c(O)c(Cc2[nH]c3cc(-c4csc5ccccc45)ccc3c2Cc2c(O)c(C)cc(C(C)=O)c2O)c1O | 20.9 µM
64 | CC(=O)c1cc(C)c(O)c(Cc2[nH]c3ccc(-c4ccc5ccccc5c4)cc3c2Cc2c(O)c(C)cc(C(C)=O)c2O)c1O | 20.7 µM
65 | CC(=O)c1cc(C)c(O)c(Cc2[nH]c3ccc(-c4csc5ccccc45)cc3c2Cc2c(O)c(C)cc(C(C)=O)c2O)c1O | 23.4 µM
66 | CC(=O)c1cc(C)c(O)c(Cc2[nH]c3ccc(-c4c5ccccc5cc5ccccc45)cc3c2Cc2c(O)c(C)cc(C(C)=O)c2O)c1O | 6.7 µM
67 | CC(=O)c1cc(C)c(O)c(Cc2[nH]c3ccc(-c4ccc5c(c4)OCCO5)cc3c2Cc2c(O)c(C)cc(C(C)=O)c2O)c1O | 13 µM
